In patent EP0657459A1, “Thienothiazine derivates, process for their preparation and their use as anti-inflammatory and analgesic agents” (Chemisch Pharmazeutische Forschungsgesellschaft m.b.H., priority 1993, dated 1995):
Like-named read-outs stand apart in the source and are kept apart here.

Key:
Cyclooxygenase = experiment: Formation of prostaglandin D2 by neutrophils as measure of cyclooxygenase activity (A23187 stimulation, RIA); format: cell-based, Sprague Dawley Ratten
Experimental: (§1) Die Bildung von Prostaglandin D2 durch Neutrophile wurde als Maß für die Cyclooxygenase-Aktivität verwendet und die Bildung von Leukotrien B4 als Maß für die 5-Lipoxygenase-Aktivität. Männlichen Sprague Dawley Ratten (250-300 g) wurde lamda - Carrageenan 1 mg intraperitoneal (gelöst in 0.5 ml dest. Wasser) injiziert. Nach 16 Stunden wurden die Ratten durch Exposition in Diethylether getötet. 15 ml eiskalte Hanks balanced salt solution (HBSS) wurden i.p. injiziert, die Neutrophilen durch Absaugen geerntet (10 ml), zentrifugiert (5 min, 100g, 4°C), die überstehende Lösung dekantiert und die Zellen in HBSS resuspendiert bei 4 °C bis zu einer Konzentration von 5x10⁶ Zellen/ml. 400 µl Zellsuspension (2x10⁶ Zellen), 0,5µl Verbindung gelöst in DMSO und 49,5 µl HBSS wurden 5 min bei 37°C inkubiert. Dann wurden 50 µl A23187 (2µmol/l Endkonzentration) zugefügt und anschließend wiederum 5 min bei 37°C inkubiert. Die Reaktion wurde durch Zentrifugieren 10000g, 3s gestoppt und die überstehende Flüssigkeit in vorgekühlte Plastikröhrchen übergeführt und vor dem Beginn der Radioimmunoassay-Messung im Eisbad max. 1 h belassen. PGD2 und LTB4 wurde nach Verdünnung mit HBSS mit Hilfe kommerzieller RIA-Kits gemessen. Als Vergleichssubstanz diente 6-Chlor-4-hydroxy-2-methyl-N-(2-pyridyl)-2H-thieno(2,3-e)1,2-thiazin-3carboxamid-1,1-dioxid ("Lornoxicam", Vbg.A)

5-Lipoxygenase = biological target: T1, 5-Lipoxygenase (Rattus norvegicus, UniProt P12527); experiment: Formation of leukotriene B4 by neutrophils as measure of 5-lipoxygenase activity (A23187 stimulation, RIA); format: cell-based, Sprague Dawley Ratten
T1 sequence (P12527 1-673): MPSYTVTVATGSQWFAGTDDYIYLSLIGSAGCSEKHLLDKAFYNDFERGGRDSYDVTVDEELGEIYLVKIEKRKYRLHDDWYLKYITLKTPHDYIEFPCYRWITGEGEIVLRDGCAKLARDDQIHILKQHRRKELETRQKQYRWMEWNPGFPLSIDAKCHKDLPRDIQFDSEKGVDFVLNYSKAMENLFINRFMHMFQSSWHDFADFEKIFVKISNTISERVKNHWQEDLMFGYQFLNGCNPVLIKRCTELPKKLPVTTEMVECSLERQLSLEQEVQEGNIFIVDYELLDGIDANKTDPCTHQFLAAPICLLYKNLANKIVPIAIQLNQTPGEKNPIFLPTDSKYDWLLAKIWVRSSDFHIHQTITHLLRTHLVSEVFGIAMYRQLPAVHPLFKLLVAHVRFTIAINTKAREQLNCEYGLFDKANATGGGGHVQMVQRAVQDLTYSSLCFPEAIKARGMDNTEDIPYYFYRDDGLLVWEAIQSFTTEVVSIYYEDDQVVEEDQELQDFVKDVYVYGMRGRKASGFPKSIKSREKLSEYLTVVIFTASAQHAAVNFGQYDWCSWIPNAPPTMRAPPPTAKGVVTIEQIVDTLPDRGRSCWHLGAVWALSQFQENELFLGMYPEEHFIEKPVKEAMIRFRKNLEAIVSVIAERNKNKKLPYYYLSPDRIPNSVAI
Experimental: as §1

[1] = read-out: IC50 (µmol/l) PGD2, rat peritoneal neutrophils (carrageenan-elicited), 2x10⁶ cells, A23187 2 µmol/l, 5 min 37°C
[2] = rat peritoneal neutrophils (carrageenan-elicited), 2x10⁶ cells, A23187 2 µmol/l, 5 min 37°C, LTB4 by RIA, read-out: IC50 (µmol/l) LTB4

`CN1C(C(=O)Nc2cccc(-c3ccc(Oc4ccc(F)cc4)o3)n2)=C(O)c2sc(Cl)cc2S1(=O)=O` [Vbg 4, 6-Chlor-N-{6-[5-(4-fluorphenoxy)-2-furyl]-2-pyridinyl}-4-hydroxy-2-methyl-2H-thieno[2,3-e]-1,2-thiazin-3-carboxamid-1,1-dioxid] gave an IC50 (Cyclooxygenase; [1]) of 1.7 µmol/L and an IC50 (5-Lipoxygenase; [2]) of 1.3 µmol/L.

`CN1C(C(=O)Nc2cccc(-c3cccc(Oc4ccc(F)cc4)c3)n2)=C(O)c2sc(Cl)cc2S1(=O)=O` [Vbg 3, 6-Chlor-N-{6-[3-(4-fluorphenoxy)phenyl]-2-pyridinyl}-4-hydroxy-2-methyl-2H-thieno[2,3-e]-1,2-thiazin-3-carboxamid-1,1-dioxid] was tested, and the IC50 (Cyclooxygenase; [1]) was 0.45 µmol/L and the IC50 (5-Lipoxygenase; [2]) was 1.7 µmol/L.

Compound `CN1C(C(=O)Nc2cccc(-c3ccc(-c4ccccc4)cc3)n2)=C(O)c2sc(Cl)cc2S1(=O)=O` [Vbg 2, N-[6-(4-Biphenyl)-2-pyridinyl]-6-chlor-4-hydroxy-2-methyl-2H-thieno[2,3-e][1,2]thiazin-3-carboxamid-1,1-dioxid] has an IC50 (Cyclooxygenase; [1]) of 3.5 µmol/L and an IC50 (5-Lipoxygenase) of 1.4 µmol/L.

With `CN1C(C(=O)Nc2cccc(-c3cc4ccccc4s3)n2)=C(O)c2sc(Cl)cc2S1(=O)=O` [Vbg 1, N-[6-(2-Benzo[b]thienyl)-2-pyridinyl]-6-chlor-4-hydrory-2-methyl-2H-thieno[2,3-e][1,2]thiazin-3-carboxamid-1,1-dioxid] the IC50 (Cyclooxygenase; [1]) was 0.049 µmol/L and the IC50 (5-Lipoxygenase; [2]) was 2 µmol/L.

`CN1C(C(=O)Nc2ccccn2)=C(O)c2sc(Cl)cc2S1(=O)=O` [A] was tested, and the IC50 (Cyclooxygenase; rat peritoneal neutrophils (carrageenan-elicited), 2x10⁶ cells, A23187 2 µmol/l, 5 min 37°C, PGD2 by RIA, read-out: IC50 (µmol/l) PGD2) was 0.02 µmol/L and the IC50 (5-Lipoxygenase; [2]) was greater than 10 µmol/L.

`CN1C(C(=O)Nc2cccc(-c3cc4ccccc4o3)n2)=C(O)c2sc(Cl)c(Cl)c2S1(=O)=O` [Vbg 5, N-[6-(2-Benzo[b]furyl)-2-pyridinyl]-6,7-dichlor-4-hydroxy-2-methyl-2H-thieno-[2,3-e][1,2]thiazin-3-carboxamid-1,1-dioxid] gave an IC50 (Cyclooxygenase; [1]) of 0.036 µmol/L and an IC50 (5-Lipoxygenase; [2]) of 1.3 µmol/L.
